{"source": "patent US6558954B1", "about": "“Phenotypic conversion of cells mediated by external guide sequences” (priority 1996, dated 2003)", "system": "bacterial species tested", "test": "TMP-mediated delivery of EGS, overall statement for the bacterial species tested", "type": "cell-based", "conditions": "E. coli, P. aeruginosa, S. aureus, B. subtilis (FIG. 2)", "text": "The results in Example 1 indicate enhanced delivery of a nucleic acid to the Gram negative organism E. coli. […] Staphylococcus aureus (Gram positive), Pseudomonas aeruginosa (Gram negative) and Bacillus subtilis (Gram positive) were obtained from the ATCC and grown overnight. The bacteria were washed with TB and resuspended to give an OD of 1.0. TMP/EGS complexes were set up as in Example 1 and delivered to the cells.\nThe cells were washed three times with TB and then treated with lysozyme solutions with EDTA (for Gram negative) or without EDTA (for Gram positive) according to the protocol of Merchant et al., J. Photochem. Photobiol. B: Biol. 32:153-157 (1996). The amount of EGS present in the cell pellet and the cell wall fraction was calculated following scintillation counting.", "data": [{"smiles": "C[n+]1ccc(-c2c3nc(c(-c4cc[n+](C)cc4)c4ccc([nH]4)c(-c4cc[n+](C)cc4)c4nc(c(-c5cc[n+](C)cc5)c5ccc2[nH]5)C=C4)C=C3)cc1", "note": "[TMP, tetra meso (n-methyl 4-pyridyl)porphine]", "values": [{"measurement": "ability of TMP to deliver EGS", "value": "able to deliver EGS to the bacterial species tested"}]}]}
